Values joined by “and” are separate entries in the source; they are usually repeats but may differ in a detail not shown here. Equal values may be shown once.
Legend:
RBP2 = assay: Western blot of retinal RBP2 after I/R; format: in vivo, rat; settings: intravitreal 1 day pre-ischemia: 10 μM/5 μl JIB-04, 4 μM/5 μl shikonin, 125 μg/5 μl avastin; Vehicle+I/R = 100%
Protocol: (§1) DNL was purchased from the Ko Da Company (Taipei, Taiwan) and dissolved in ddH2O. For the electrophysiological, immuohistochemical and molecular biological studies, drug administration was carried out for seven days and involved various groups, namely a post-ischemia administration (daily high dose of DNL at 1 g/kg/day, I/R+DNL1.0), or pre-ischemia administration (daily high dose of DNL, DNL1.0+I/R; low dose of DNL at 0.5 g/kg/day, DNL0.5+I/R). The rats in the vehicle group that were subjected to ischemia were either post-administered (I/R+Vehicle) or pre-administered with a similar volume of vehicle (Vehicle+I/R) as the DNL group.
(§2) As compared with the Sham, Vehicle+I/R or DNL1.0+I/R group, the ischemic eyes of other groups received intravitreal injections using a 30-gauge needle connected to a 25 μl syringe after the pupil was dilated with 1% tropicamide and 2.5% phenylephrine. Specifically, the ischemic eyes received 1 day pre-ischemia intravitreal administrations of various inhibitors/antibodies, namely 10 μM/5 μl JIB-04 (Sigma-Aldrich), 4 μM/5 μl Shikonin (S7576; Sigma-Aldrich), 125 μg/5 μl Avastin (Hoffmann-La Roche), or 200 μg/5 μl Eylea (Regeneron Pharmaceuticals Inc.). One day after retinal I/R and administration of relevant compounds or after a sham procedure, the animals were sacrificed. Retinal samples were collected in order to measure the protein levels of […], RBP2, PKM2, VEGF-A and PLGF by the western blot assay or ELISA.
(§3) Ischemia induction. Each rat was anesthetized with the above anesthetics and placed in a stereotaxic frame. […]
(§4) Retinal/cellular samples were retrieved and sonicated in lysis buffer, namely mammalian protein extraction reagent (MPER; HyCell). Identical quantities of denatured proteins (40 μg/30 μl/well) then underwent sodium dodecyl sulfate polyacrylamide gel electrophoresis (SDS-PAGE; Bio-Rad) as described previously. […] The amount of each protein was then evaluated by scanning densitometry.

PKM2 = assay: Western blot of retinal PKM2 after I/R; format: in vivo, rat; settings: intravitreal 1 day pre-ischemia: 10 μM/5 μl JIB-04, 4 μM/5 μl shikonin, 125 μg/5 μl avastin; Vehicle+I/R = 100%
Protocol: as §1, §2, §3, §4

VEGF = assay: Western blot of retinal VEGF after I/R; format: in vivo, rat; settings: intravitreal 1 day pre-ischemia: 10 μM/5 μl JIB-04, 4 μM/5 μl shikonin, 125 μg/5 μl avastin; Vehicle+I/R = 100%
Protocol: as §1, §2, §3, §4

HIF-1α = assay: Western blot of retinal HIF-1α after I/R; format: in vivo, rat; settings: intravitreal 1 day pre-ischemia: 10 μM/5 μl JIB-04, 4 μM/5 μl shikonin, 125 μg/5 μl avastin; Vehicle+I/R = 100%
Protocol: as §1
(§5) As compared with the Sham, Vehicle+I/R or DNL1.0+I/R group, the ischemic eyes of other groups received intravitreal injections using a 30-gauge needle connected to a 25 μl syringe after the pupil was dilated with 1% tropicamide and 2.5% phenylephrine. […]
as §4

[1] = tested on: norrie disease protein (NDP); assay: Western blotting of NDP relative to β-actin in RGC-5 cells subjected to OGD; format: cell-based, mouse
Protocol: Moscatilin was purchased from EMMX Biotechnology (EN10271, CA, USA) and dissolved in DMSO (vehicle). […] Moscatilin (0.1 μM) was administered at 1 hour pre-OGD, during OGD, or at 1 hour post-OGD. Its therapeutic effects were evaluated by MTT and Western blotting assays.
(§6) The RCG-5 cell lines were not transformed rat RGCs but, rather, mouse retinal neuronal precursors. OGDs were defined as cells that were maintained in glucose-free DMEM (Thermo Fisher Scientific Inc.) at 37° C. under the hypoxic (ischemic-like) conditions, namely 1% O2 (monitored by an analyzer; Penguin Incubator: control range 1-89%; Astec Company, Kukuoka, Japan), 94% N2 and 5% CO2. There were different groups, consisting of cells that received (i) DMSO in DMEM (control cells; DMSO+DMEM), (ii) DMSO followed by OGD (DMSO+OGD), (iii) OGD and administration of moscatilin (0.1 μM in DMEM) at 1 hour pre-OGD (Pre-OGD Mos 0.1 μM), (iv) during OGD (During OGD Mos 0.1 μM), or (v) at 1 hour post-OGD (Post-OGD Mos 0.1 μM). At the end of the 1 day OGD period, the cell cultures were returned to fresh DMEM for another 24 h. The MTT (viability) and the Western blotting assays (NDP) were then performed.
Retinal/cellular samples were retrieved and sonicated in lysis buffer, namely mammalian protein extraction reagent (MPER; HyCell). Identical quantities of denatured proteins (40 μg/30 μl/well) then underwent sodium dodecyl sulfate polyacrylamide gel electrophoresis (SDS-PAGE; Bio-Rad) as described previously. After separation, the protein bands were transferred to a polyvinylidene difluoride (PVDF) membrane and then immersed for 12 hours at 4° C. with the following primary antibodies, mouse monoclonal anti-β-actin antibody (AC-15; 1:2,000; ab6276)/anti-HIF-1α antibody (1:200; H1alpha67-ChIP Grade; Abcam Inc.), rabbit polyclonal anti-VEGF antibody (A-20; 1:200; sc-152)/anti-PKM2 antibody (1:500; ab38237), or rabbit monoclonal anti-RBP2 antibody (ab177486; 1:1000; Abcam Inc.). […] The amount of each protein was then evaluated by scanning densitometry.

RGC-5 cells = assay: MTT cell viability assay of RGC-5 cells subjected to oxygen glucose deprivation (OGD); format: cell-based, mouse; settings: Mus musculus
Protocol: (§7) Moscatilin was purchased from EMMX Biotechnology (EN10271, CA, USA) and dissolved in DMSO (vehicle). […] […] Its therapeutic effects were evaluated by MTT and Western blotting assays.
as §6, with “([…]),” for “(iii) OGD and administration of moscatilin (0.1 μM in DMEM) at 1 hour pre-OGD (Pre-OGD Mos 0.1 μM),”
(§8) Mitochondria NADPH dependent oxidoreductases were capable of reducing MTT to form formazan. Therefore, an increase in the amount of dark purple formazan corresponded to greater cell viability. MTT (0.5 mg/mL; Sigma-Aldrich) was added and allowed to react for 3 hr at 37° C. to the 96-well plates containing the original 100 μL of cells. The reduced MTT was then solubilized by adding 100 μL DMSO. After agitation of the plates, the OD of the solubilized formazan was measured using an ELISA reader (Synergy H1 Multi-Mode Reader BioTek Instruments) at 562 nm. Cell viability was expressed as OD values relative to the control (100%).

[2] = as above; format: cell-based, mouse; settings: mouse, RGC-5 cells subjected to oxygen glucose deprivation (OGD), cytotoxic effect
Protocol: as §7
as §6, with “([…]),” for “(iii) OGD and administration of moscatilin (0.1 μM in DMEM) at 1 hour pre-OGD (Pre-OGD Mos 0.1 μM),”
as §8

two cell lines = settings: cited from earlier work
[3] = tested on: placental growth factor (PLGF); assay: ELISA of retinal PLGF after I/R; format: in vivo, rat; settings: pre-ischemia intravitreal 200 μg/5 μl Eylea (Eylea+I/R); Vehicle+I/R 39.53±5.25
Protocol: as §1, §5
The level of PLGF was determined using ELISA. […] The total protein in each sample was determined using a bicinchoninic acid protein kit (Thermo Fisher Scientific). The PLGF levels in the supernatant were measured using a PLGF ELISA kit (CSB-E07400r; Cusabio Life Scince) accordingly. […] The maximum absorbance (OD) at 450 nm was detected immediately using a microplate reader (Synergy H1 Hybrid Multi-Mode Reader, Biotek ELx800). […]

Question: For `Clc1ccc(N/N=C(\c2ccccc2)c2ccccn2)nc1` [JIB-04], which “level of RBP2 (ratio to β-actin)” value (RBP2) is on record?
Answer: The value was 5.83±1.43%.

Question: And the “level of PKM2 (ratio to β-actin)” value (PKM2)?
Answer: The value was 60.36±7.59%.

Question: And the “level of VEGF (ratio to β-actin)” value (VEGF)?
Answer: Its value is 27.82±1.21%.

Question: What about the “level of HIF-1α (ratio to β-actin)” value (HIF-1α) of the same molecule?
Answer: The value was 53.98±2.29%.

Question: For `COc1cc(CCc2cc(OC)c(O)c(OC)c2)ccc1O` [moscatilin], which “amount of NDP relative to β-actin” value ([1]; 0.1 μM moscatilin 1 hour pre-OGD, DMSO+DMEM = 100%, DMSO+OGD 44.54±3.15%) is on record?
Answer: The value was 108.38±29.33%.

Question: And the “amount of NDP relative to β-actin” value ([1]; 0.1 μM moscatilin 1 h post-OGD)?
Answer: The value was 54.36±3.88%.

Question: What about the “amount of NDP relative to β-actin” value ([1]; 0.1 μM moscatilin during OGD) of the same molecule?
Answer: The value was 48.99±9.89%.

Question: What about the viability at 0.1 µM (RGC-5 cells; RGC5, 0.1 μM moscatilin during OGD, P=0.31 vs DMSO+OGD) of the same molecule?
Answer: Its viability at 0.1 µM is 56 ± 4.08%.

Question: And the viability at 1 µM (RGC-5 cells; RGC5, 1 μM moscatilin pre-OGD, n=4)?
Answer: The viability at 1 µM was 66.4 ± 9.35%.

Question: What about the viability at 0.1 µM (RGC-5 cells; RGC5, 1 h, 0.1 μM moscatilin at 1 hour post-OGD, P=0.41 vs DMSO+OGD) of the same molecule?
Answer: Its viability at 0.1 µM is 52.6 ± 4.16%.

Question: What about the viability at 0.1 µM (RGC-5 cells; RGC5, 1 h, 0.1 μM moscatilin at 1 hour pre-OGD, relative to DMSO+DMEM control (100%), DMSO+OGD 53.66±2.67%) of the same molecule?
Answer: Its viability at 0.1 µM is 62.6 ± 4.35%.

Question: What about the viability at 10 μM ([2]; 10 μM moscatilin pre-OGD, n=4) of the same molecule?
Answer: Its viability at 10 μM is 15.4 ± 3.09%.

Question: What about the viability at 100 μM ([2]; 100 μM moscatilin pre-OGD, n=1) of the same molecule?
Answer: The viability at 100 μM was 12.5%.

Question: And the IC50 (two cell lines; 24 h, two cell lines, respectively, previous reports, read-out: IC50 of reduced cell viability)?
Answer: Its IC50 is 7 µM and 6.7 µM.

Question: What about the toxicity to cells (two cell lines; concentrations equal to or less than 1 μM, previous researches) of the same molecule?
Answer: The toxicity to cells was “non-toxic”.

Question: Which results are given for `CC(C)=CC[C@@H](O)C1=CC(=O)c2c(O)ccc(O)c2C1=O` [shikonin]?
Answer: level of RBP2 (ratio to β-actin) (RBP2): 3.40±0.23%; level of PKM2 (ratio to β-actin) (PKM2): 44.94±10.91%; level of VEGF (ratio to β-actin) (VEGF): 57.55±9.40%; level of HIF-1α (ratio to β-actin) (HIF-1α): 42.65±0.76%

Question: For “Eylea: VEGF trap/anti-PLGF (Regeneron Pharmaceuticals Inc.)”, which “level of PLGF” value [3] is on record?
Answer: The value was 6.44 ± 0.60 pg/mL.

Question: Which results are given for “avastin: VEGF antibody (Hoffmann-La Roche)”?
Answer: level of RBP2 (ratio to β-actin) (RBP2): 78.35±3.29%; level of PKM2 (ratio to β-actin) (PKM2): 84.44±4.53%; level of VEGF (ratio to β-actin) (VEGF): 5.38±2.51%
